This is an account of results in ChEMBL document CHEMBL1208694, “Aryl sulfonamides containing tetralin allylic amines as potent and selective bradykinin B1 receptor antagonists” (Bioorg Med Chem Lett, 2010).

The target of data set [1] is T1, B1 bradykinin receptor (Homo sapiens, UniProt P46663).
T1 sequence (P46663 whole entry): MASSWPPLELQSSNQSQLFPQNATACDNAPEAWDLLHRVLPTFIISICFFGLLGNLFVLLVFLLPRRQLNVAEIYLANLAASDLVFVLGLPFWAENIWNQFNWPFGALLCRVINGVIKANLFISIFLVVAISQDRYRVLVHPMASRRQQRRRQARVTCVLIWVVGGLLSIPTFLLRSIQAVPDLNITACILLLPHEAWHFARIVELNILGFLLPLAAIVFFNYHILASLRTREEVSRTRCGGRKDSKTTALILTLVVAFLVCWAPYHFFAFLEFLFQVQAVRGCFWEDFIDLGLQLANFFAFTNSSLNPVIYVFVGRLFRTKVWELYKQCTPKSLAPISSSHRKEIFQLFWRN
Description: Antagonist activity at human bradykinin B1 receptor assessed as inhibition of Lys-desArg9-BK-induced calcium flux. The format is functional.

Data set [2] addresses T1, B1 bradykinin receptor. Briefly: Displacement of [3H]Lys-desArg9-BK from human bradykinin B1 receptor.
Data set [3] is described as follows: Oral bioavailability in rat at 10 mg/kg. Conditions: in vivo.
Data set [4] is described as follows: Half life in rat at 1 mg/kg, iv. The settings on record: in vivo. Set-up: dose 1 mg/kg, route intravenous. The format is ADME, organism-based.
Data set [5] can be described thus: Clearance in rat at 1 mg/kg, iv. Conditions: in vivo. Also noted: dose 1 mg/kg, route intravenous. The format is ADME, organism-based.
The nature of data set [6]: Metabolic stability in rat liver microsomes. It is filed as ADME, Microsome. Conditions: read-out: Stability.
Data set [7] can be described thus: Volume of distribution at steady state in rat at 1 mg/kg, iv. The format is ADME, organism-based. Also noted: dose 1 mg/kg, route intravenous. Conditions: in vivo, read-out: Vdss.

Take `CC(CN1CCCCC1)c1ccc2c(c1)CCC[C@H]2NC(=O)C[C@@H](NS(=O)(=O)c1cccc(C(F)(F)F)c1)c1ccccc1` (stereo partly specified): the IC50 on B1 bradykinin receptor [1] was found to be 316 nM. For the same compound, the Ki at B1 bradykinin receptor [2] turned out to be 34 nM.

Consider `O=C(C[C@@H](NS(=O)(=O)c1cccc(C(F)(F)F)c1)c1ccccc1)N[C@@H]1CCCc2cc(C3(CN4CCCCC4)CC3)ccc21`, for which the IC50 on B1 bradykinin receptor [1] came to 88 nM. Further, the Ki on B1 bradykinin receptor [2] worked out at 14 nM.

With `C=C(CN1CCCCC1)c1ccc2c(c1)CCC[C@H]2NC(=O)C[C@@H](NS(=O)(=O)c1cccc(C(F)(F)F)c1)c1ccccc1`, at B1 bradykinin receptor [1], the IC50 came out at 41 nM. The compound further had a Ki on B1 bradykinin receptor [2] of 3.3 nM.

`C=C(CN1CCCC1)c1ccc2c(c1)CCC[C@H]2NC(=O)C[C@@H](NS(=O)(=O)c1cccc(C(F)(F)F)c1)c1ccccc1` displayed a bioavailability in data set [3] of 10%. In data set [4], this compound gave a half-life of 1.5 h. The IC50 at B1 bradykinin receptor [1] worked out at 9.7 nM. The compound also gave a clearance in data set [5] of 30.6 mL/min/kg. For the same compound, the microsomal CLint in data set [6] was found to be 282 µL/min/mg. Also, the Vd in data set [7] came to 3.62 L/kg. At B1 bradykinin receptor [2], this compound had a Ki of 0.7 nM.

For the compound `C=C(CN1CC[C@H](O)C1)c1ccc2c(c1)CCC[C@H]2NC(=O)C[C@@H](NS(=O)(=O)c1cccc(C(F)(F)F)c1)c1ccccc1`, the IC50 at B1 bradykinin receptor [1] is 3.9 nM. The Ki on B1 bradykinin receptor [2] was found to be 3.5 nM.

With `C=C(CN1CC[C@@H](O)C1)c1ccc2c(c1)CCC[C@H]2NC(=O)C[C@@H](NS(=O)(=O)c1cccc(C(F)(F)F)c1)c1ccccc1`, the IC50 at B1 bradykinin receptor [1] came out at 15 nM. The compound also displayed a Ki on B1 bradykinin receptor [2] of 12 nM.

Turning to `C=C(CN1CCC1)c1ccc2c(c1)CCC[C@H]2NC(=O)C[C@@H](NS(=O)(=O)c1cccc(C(F)(F)F)c1)c1ccccc1`, on B1 bradykinin receptor [1], the IC50 came to 206 nM. Moreover, at B1 bradykinin receptor [2], the affinity corresponds to a Ki of 12 nM.

Take `C=C(CN(C)C)c1ccc2c(c1)CCC[C@H]2NC(=O)C[C@@H](NS(=O)(=O)c1cccc(C(F)(F)F)c1)c1ccccc1`: at B1 bradykinin receptor [1], the IC50 was 154 nM. For the same compound, affinity on B1 bradykinin receptor [2] was put at a Ki of 78 nM.

For `C=C(CNCCO)c1ccc2c(c1)CCC[C@H]2NC(=O)C[C@@H](NS(=O)(=O)c1cccc(C(F)(F)F)c1)c1ccccc1`, the IC50 on B1 bradykinin receptor [1] worked out at 32 nM. For the same compound, the affinity at B1 bradykinin receptor [2] corresponds to a Ki of 21 nM.

For `C=C(CNCCOC)c1ccc2c(c1)CCC[C@H]2NC(=O)C[C@@H](NS(=O)(=O)c1cccc(C(F)(F)F)c1)c1ccccc1`, the IC50 at B1 bradykinin receptor [1] is 23 nM. Moreover, the affinity on B1 bradykinin receptor [2] corresponds to a Ki of 42 nM.

`C=C(CNCC1CC1)c1ccc2c(c1)CCC[C@H]2NC(=O)C[C@@H](NS(=O)(=O)c1cccc(C(F)(F)F)c1)c1ccccc1`: the IC50 at B1 bradykinin receptor [1] worked out at 105 nM. At B1 bradykinin receptor [2], this compound registered a Ki of 16 nM.

As for `C=C(CNC(C)(C)C)c1ccc2c(c1)CCC[C@H]2NC(=O)C[C@@H](NS(=O)(=O)c1cccc(C(F)(F)F)c1)c1ccccc1`, on B1 bradykinin receptor [1], the IC50 was 78 nM. The same compound registered a Ki on B1 bradykinin receptor [2] of 11 nM.

For `C=C(CNC(C)C)c1ccc2c(c1)CCC[C@H]2NC(=O)C[C@@H](NS(=O)(=O)c1cccc(C(F)(F)F)c1)c1ccccc1`, the bioavailability in data set [3] was determined as 15%. For the same compound, the half-life in data set [4] is 2.4 h. Also, the IC50 at B1 bradykinin receptor [1] was 42 nM. Moreover, the clearance in data set [5] was 33.2 mL/min/kg. Besides, the microsomal CLint in data set [6] stood at 240 µL/min/mg. For the same compound, the Vd in data set [7] is 5.86 L/kg. At B1 bradykinin receptor [2], this compound returned a Ki of 4.6 nM.

Turning to `C=C(CNC1CCC1)c1ccc2c(c1)CCC[C@H]2NC(=O)C[C@@H](NS(=O)(=O)c1cccc(C(F)(F)F)c1)c1ccccc1`, the IC50 at B1 bradykinin receptor [1] amounted to 44 nM. In addition, on B1 bradykinin receptor [2], the Ki was 3.4 nM.

With `C=C(CNC1CCCC1)c1ccc2c(c1)CCC[C@H]2NC(=O)C[C@@H](NS(=O)(=O)c1cccc(C(F)(F)F)c1)c1ccccc1`, the IC50 on B1 bradykinin receptor [1] was found to be 47 nM. On B1 bradykinin receptor [2], this compound had a Ki of 30 nM.

With `C=C(CN1CCCC1)c1ccc2c(c1)CCC[C@H]2NC(=O)C[C@@H](NS(=O)(=O)c1cccc(C(F)(F)F)c1)c1ccc(F)cc1`, at B1 bradykinin receptor [1], the IC50 is 1.3 nM.
